Assay results: the NIST ThermoML archive (doi:10.1021/je2010038)

Test: xn = mol fraction of the nth substance listed
Conditions: for mass density: Liquid, Vibrating tube method; for surface tension liquid-gas: Pendant drop shape

NCCO [2-aminoethan-1-ol] + O
mass density [kg/m3]
Conditions | x1 = 0.1122 | x1 = 0.1643 | x1 = 0.2278 | x1 = 0.3067 | x1 = 0.4077 | x1 = 0.5412 | x1 = 0.7264 | x1 = 1
298.15 K, 101 kPa | 1010.9 | 1016.3 | 1021.3 | 1024.8 | 1026.3 | 1024.7 | 1020 | 1011.9
303.15 K, 101 kPa | 1008.4 | 1013.8 | 1018.2 | 1021.4 | 1022.8 | 1021 | 1016.2 | 1008
308.15 K, 101 kPa | 1006.2 | 1011 | 1015.2 | 1018.2 | 1019.3 | 1017.3 | 1012.3 | 1004
313.15 K, 101 kPa | 1003.5 | 1008.3 | 1012.1 | 1014.7 | 1015.7 | 1013.5 | 1008.5 | 1000
318.15 K, 101 kPa | 1001.1 | 1005.3 | 1009 | 1011.4 | 1012 | 1009.7 | 1004.5 | 996
323.15 K, 101 kPa | 998.1 | 1002.3 | 1005.6 | 1007.8 | 1008.3 | 1005.9 | 1000.6 | 992
328.15 K, 101 kPa | 995.5 | 999.2 | 1002.4 | 1004.4 | 1004.6 | 1002 | 996.7 | 988
333.15 K, 101 kPa | 992.3 | 996.1 | 999 | 1000.7 | 1000.8 | 998.2 | 992.7 | 983.9
338.15 K, 101 kPa | 989.5 | 992.7 | 995.4 | 997.1 | 997 | 994.2 | 988.7 | 979.8
343.15 K, 101 kPa | 986.1 | 989.4 | 991.9 | 993.2 | 993.1 | 990.2 | 984.6 | 975.8
348.15 K, 101 kPa | 983 | 985.9 | 988.3 | 989.5 | 989.2 | 986.2 | 980.6 | 971.6
353.15 K, 101 kPa | 979.4 | 982.4 | 984.5 | 985.6 | 985.2 | 982.1 | 976.5 | 967.5
358.15 K, 101 kPa | 976.1 | 978.7 | 980.8 | 981.8 | 981.2 | 978 | 972.3 | 963.4
363.15 K, 101 kPa | 972.5 | 975 | 976.9 | 977.7 | 977.1 | 973.9 | 968.1 | 959.2
373.1 K, 700 kPa | 965.3 | 967.2 | 969 | 969.4 | 968.5 | 965.3 | 959.3 | 950.9
383.15 K, 700 kPa | 957.4 | 959.1 | 960.6 | 960.8 | 959.8 | 956.5 | 950.6 | 942.3
393.15 K, 700 kPa | 949.1 | 950.7 | 952 | 952.1 | 950.9 | 947.6 | 941.7 | 933.5
403.15 K, 700 kPa | 940.6 | 941.9 | 943.1 | 943.1 | 941.9 | 938.6 | 932.7 | 924.7
413.15 K, 700 kPa | 931.7 | 932.9 | 934 | 933.8 | 932.6 | 929.3 | 923.6 | 915.7
423.15 K, 700 kPa | 922.3 | 923.3 | 924.3 | 924.1 | 922.8 | 919.5 | 914.1 | 906.4

surface tension liquid-gas [mN/m]
Conditions | x1 = 0.032 | x1 = 0.069 | x1 = 0.112 | x1 = 0.164 | x1 = 0.228 | x1 = 0.307 | x1 = 0.407 | x1 = 0.541 | x1 = 0.726 | x1 = 1
303.15 K | 66.75 | 64.74 | 63.58 | 61.74 | 59.27 | 57.42 | 55.78 | 53.43 | 50.59 | 48.13
313.15 K | 65.51 | 63.29 | 62.55 | 60.27 | 58.19 | 56.35 | 54.82 | 52.41 | 49.63 | 46.66
323.15 K | 64.31 | 61.72 | 61.16 | 58.82 | 56.85 | 55.15 | 53.4 | 51.14 | 48.42 | 45.58
333.15 K | 62.46 | 60.07 | 59.39 | 57.29 | 55.39 | 53.61 | 51.77 | 49.62 | 47 | 44.63
